According to patent US20020002269A1, “ARTEMIN, A NEUROTROPHIC FACTOR” (priority 1998, published 2002):

How the values were obtained:
[1] = system: superior cervical ganglion (SCG) neurons; test: Survival of cultured superior cervical ganglion neurons after NGF withdrawal; format: cell-based, rat; settings: 50 ng/ml, FIG. 7E
Description: Each GDNF ligand family member consisted of the human mature amino acid sequence and was produced by standard recombinant DNA methods. Recombinant GDNF, neurturin and persephin were obtained from Genentech while recombinant artemin was produced as described in Example 3.
The cultures were performed using standard methods described elsewhere (Kotzbauer et al., Neuron 12:763-773, 1994; Kotzbauer et al., Nature 384:467-470, 1996; Milbrandt et al., Neuron 20:245-253, 1998). […] Cultures were maintained for 3 days, after which they were fixed in 4% paraformaldehyde and stained with toluidine blue, and surviving neurons were counted. For nodose ganglion and dorsal root ganglion neuron cultures, dissociated neurons were plated directly into NGF (for dorsal root ganglia), or BDNF (for nodose ganglia, 100 ng/ml) or one of the GDNF ligands in serum-containing medium (AM50 with anti-NGF antibodies), and cells surviving after 3 days in culture were counted as above. Trigeminal ganglia were dissected, dissociated, and plated directly into medium containing NGF or the indicated GDNF ligands, and the number of surviving cells was assessed after 3 days in vitro. […]

GFRα3-Fc = target: T1, GFRα3-Fc (Homo sapiens, UniProt O60609); test: Direct binding of soluble GFRα3-Fc receptor body to plate-coated ligand; settings: ligand coated at 325 ng/ml, absence of RET, FIG. 9E
T1 construct: purchased R&D Systems
T1 sequence (O60609 with tags, fused parts or gaps limits assumed): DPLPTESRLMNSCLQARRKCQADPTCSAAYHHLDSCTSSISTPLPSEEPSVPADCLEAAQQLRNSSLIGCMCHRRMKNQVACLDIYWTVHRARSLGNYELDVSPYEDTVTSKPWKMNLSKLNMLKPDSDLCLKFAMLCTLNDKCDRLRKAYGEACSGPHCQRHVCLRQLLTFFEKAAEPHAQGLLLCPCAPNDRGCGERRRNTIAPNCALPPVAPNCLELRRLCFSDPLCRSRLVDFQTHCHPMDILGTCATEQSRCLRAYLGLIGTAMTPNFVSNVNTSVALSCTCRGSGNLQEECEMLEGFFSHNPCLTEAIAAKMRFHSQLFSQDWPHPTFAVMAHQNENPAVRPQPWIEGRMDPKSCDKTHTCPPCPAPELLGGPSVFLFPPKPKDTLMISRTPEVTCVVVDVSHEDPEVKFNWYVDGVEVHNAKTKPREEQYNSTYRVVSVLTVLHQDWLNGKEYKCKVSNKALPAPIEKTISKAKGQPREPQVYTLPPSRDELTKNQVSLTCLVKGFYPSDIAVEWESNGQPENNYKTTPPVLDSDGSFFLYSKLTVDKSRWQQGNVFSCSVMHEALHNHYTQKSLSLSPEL
Description: To investigate which if any of the known coreceptor(s) artemin can utilize to activate RET, its ability to directly bind to soluble Fc-fusion forms of GFRα1, GFRα2, or GFRα3 was assessed. GFRα1-Fc, GFRα2-Fc and GFRα3-Fc fusion proteins were obtained from R&D Systems. Binding assays were performed similarly to assays previously described (Sanicola et al., Proc. Natl. Acad. Sci., USA 94:6238-6243, 1997). Recombinant GDNF, neurturin, artemin, persephin, or purified bovine serum albumin (BSA; Pierce) were coated to Nunc-Immuno MaxiSorp microtiter plates at 325 ng/ml in TBS (10 mM Tris-HCl pH 7.5, 150 mM NaCl) for 1 hour at 25° C. Plates were washed (3× in TBS/0.03% Tween-20), and then blocked (blocking solution: TBS/1% BSA) for 1 hr at 25° C. Receptor bodies diluted in blocking solution were added and incubated for 2 hr at 25° C., washed 5X, then incubated with 1:10,000 dilution of HRP-conjugated anti-human Fc antibodies in blocking solution (Jackson Immunoresearch) for 45 minutes at 25° C. […] The reaction was stopped by adding an equal volume of 0.5M H2SO4, and color was measured in a plate reader at 450 nm. Non-specific binding of receptor bodies to the plates was measured in BSA coated wells, and this binding was subtracted from all other measurements.

[2] = system: dopaminergic neurons from the rat embryonic ventral midbrain; test: Survival of TH+ dopaminergic ventral midbrain neurons; format: cell-based; settings: E14 rat, 50 ng/ml, 3 days in culture, FIG. 7F
Description: Embryonic day 14 ventral mesencephalon cultures were prepared by removing the entire mesencephalon into cold Leibovitz's L15+6 mg/ml glucose and dissecting the tissue while keeping it on ice. Following dissection, the tissue was digested in a mixture of dispase (1 mg/ml, Sigma) and collagenase (1 mg/ml, Worthington Biochemical) for 25 min. Tissue was then washed twice with modified N2 media and triturated 35 times. Cell density and viability was assessed using a hemocytometer to count trypan blue excluding cells. Cells were plated at 20,000 cells/well on 8-well chamber slides (coated with 125 ng/ml poly-D-lysine and 25 ng/ml laminin) in serum-free medium consisting of DME/Hams F12 (1:1), 1 mg/ml BSA, 5 μM insulin, 10 nM progesterone, 100 μM putrescine, 30 nM selenium, 10 ng/ml rat transferrin, 100 U/ml penicillin, 100 U/ml streptomycin. Factors were added within 15 min of plating. After 3 days in culture, the cells were fixed, stained for tyrosine hydroxylase, and the number of tyrosine hydroxylase staining (TH+) neurons were counted. The results from two independent experiments are shown in FIG. 7F as the percentage of surviving TH+ neurons over control.

[3] = system: SH-SY5Y neuroblastoma cell line; test: Differentiation of SH-SY5Y neuroblastoma cells; format: cell-based; settings: 50 ng/ml, three days after factor addition, FIG. 8C
Description: In one experiment, cells from the SH-SY5Y neuroblastoma cell line were plated at 2×10^5 cells/ml/well in 12-well tissue culture plates. After one day in culture cells were either left untreated (Cn) or stimulated with 50 ng/ml artemin (ART) or 10 μM retinoic acid (RA), a known inducer of differentiation of SH-SYSY cells. Three days after factor addition, differentiation was assessed and cells were photographed.

Substance: artemin: recombinant mature human artemin (FIG. 3A, SEQ ID NO:3) with 8-histidine tag, produced in E. coli; GDNF family neurotrophic factor
- survival of SCG neurons ([1]; 3 days after 5 days in NGF, anti-NGF antibodies): supported the survival of SCG neurons
- number of SCG neurons supported compared with GDNF or neurturin [1]: fewer neurons were supported by artemin than by GDNF or neurturin
- direct binding of GFRα3-Fc (GFRα3-Fc): able to bind to artemin
- survival of TH+ dopaminergic midbrain neurons [2]: supported the survival of dopaminergic midbrain neurons
- differentiation (neurite outgrowth, neuronal morphology) of SH-SY5Y cells [3]: induced strong differentiation responses
